Measurements published in US20260083865A1, “PROSTATE SPECIFIC MEMBRANE ANTIGEN (PSMA) LIGANDS AND USE THEREOF” (priority 2022, published 2026).
Where two headings read alike, the source gives them in different places. Numbered stars: 1 amine (or outer) side, 2 acyl side, 3 side chain; on linkers, the order of the positions; unused ones are H or OH. Bridge positions count the residues as written; N and C are the ends. Square brackets hold non-standard residues; d marks the D form. Side chains are listed from the residue outwards. Peptide text beside a SMILES is read from it. * marks the point of attachment. X3 = O=C(O)CN1CCN(CC(=O)O)CCN(CC(=O)NCCCOCCOCCOCCCN*)CCN(CC(=O)O)CC1; DOTA = O=C(O)CN1CCN(CC(=O)O)CCN(CC(=O)*)CCN(CC(=O)O)CC1; Phe(4-Cl) = N[C@@H](Cc1ccc(Cl)cc1)C(=O)O; X1 = O=C(CC1CCN([*:1])CC1)[*:2]; NMeK = CN[C@@H](CCCCN)C(=O)O; Suc = O=C(CCC(=O)[*:2])[*:1]; Tle = CC(C)(C)[C@H](N)C(=O)O; Propanoyl(3-OH) = O=C(CCO)*; Isovaleryl = CC(C)CC(=O)*; αMeS = C[C@](N)(CO)C(=O)O; NHCH2CH2NMe2 = CN(C)CCN*; Nle = CCCC[C@H](N)C(=O)O; Aib = CC(C)(N)C(=O)O; Sar = CNCC(=O)O; NHBu = CCCCN*

Key:
[1] = biological target: T1, PSMA-expressing C4-2 cells (Homo sapiens, UniProt Q04609); test: FACS binding assay (competition with 50 nM PSM-0183); conditions: for IC50: read-out: pIC50 [C4-2] CAT (converted)
T1 construct: PSMA-expressing C4-2 cells (ATCC, Cat. No. CRL-3314) were cultured in RPMI-1640; host or cells: C4-2 cells
T1 sequence (Q04609 whole entry): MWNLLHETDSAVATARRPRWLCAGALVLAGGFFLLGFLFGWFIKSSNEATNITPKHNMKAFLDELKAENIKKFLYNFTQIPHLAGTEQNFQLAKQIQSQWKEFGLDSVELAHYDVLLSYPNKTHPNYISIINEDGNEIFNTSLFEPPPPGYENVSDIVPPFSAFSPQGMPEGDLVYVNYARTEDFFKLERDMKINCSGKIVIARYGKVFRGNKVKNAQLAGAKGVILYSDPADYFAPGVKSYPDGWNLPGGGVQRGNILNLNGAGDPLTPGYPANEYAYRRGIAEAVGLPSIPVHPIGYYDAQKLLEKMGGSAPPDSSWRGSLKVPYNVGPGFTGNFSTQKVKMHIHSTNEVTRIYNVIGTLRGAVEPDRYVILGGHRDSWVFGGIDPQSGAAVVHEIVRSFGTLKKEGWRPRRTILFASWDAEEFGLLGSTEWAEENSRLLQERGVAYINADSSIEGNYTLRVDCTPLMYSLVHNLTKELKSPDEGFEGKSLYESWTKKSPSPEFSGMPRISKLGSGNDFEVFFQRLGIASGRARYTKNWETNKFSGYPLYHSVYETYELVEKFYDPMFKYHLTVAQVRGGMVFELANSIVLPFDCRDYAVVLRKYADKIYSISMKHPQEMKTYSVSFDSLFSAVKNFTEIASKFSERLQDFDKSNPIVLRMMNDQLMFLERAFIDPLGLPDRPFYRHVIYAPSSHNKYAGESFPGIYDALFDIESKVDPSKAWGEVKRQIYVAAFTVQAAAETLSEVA
Outline: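 C4-2 cells were incubated 1 h at 4 °C with 50 nM AF488-labelled peptide PSM-0183 plus increasing test compound concentrations, then washed twice in ice-cold buffer. Median fluorescence in the AF488 channel was read by flow cytometry. IC50/pIC50 was derived by 4PL fitting of MFI versus concentration.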

[2] = biological target: T2, Fc-fusion protein of human PSMA (hPSMA-Fc) (Homo sapiens, UniProt Q04609); test: Surface plasmon resonance assay (Biacore T200, single cycle kinetic); format: binding; conditions: for Kd: read-out: pKD CAT (converted)
T2 construct: purchased Acro Biosystems PSA-H5264
T2 sequence (Q04609 44-750 limits assumed): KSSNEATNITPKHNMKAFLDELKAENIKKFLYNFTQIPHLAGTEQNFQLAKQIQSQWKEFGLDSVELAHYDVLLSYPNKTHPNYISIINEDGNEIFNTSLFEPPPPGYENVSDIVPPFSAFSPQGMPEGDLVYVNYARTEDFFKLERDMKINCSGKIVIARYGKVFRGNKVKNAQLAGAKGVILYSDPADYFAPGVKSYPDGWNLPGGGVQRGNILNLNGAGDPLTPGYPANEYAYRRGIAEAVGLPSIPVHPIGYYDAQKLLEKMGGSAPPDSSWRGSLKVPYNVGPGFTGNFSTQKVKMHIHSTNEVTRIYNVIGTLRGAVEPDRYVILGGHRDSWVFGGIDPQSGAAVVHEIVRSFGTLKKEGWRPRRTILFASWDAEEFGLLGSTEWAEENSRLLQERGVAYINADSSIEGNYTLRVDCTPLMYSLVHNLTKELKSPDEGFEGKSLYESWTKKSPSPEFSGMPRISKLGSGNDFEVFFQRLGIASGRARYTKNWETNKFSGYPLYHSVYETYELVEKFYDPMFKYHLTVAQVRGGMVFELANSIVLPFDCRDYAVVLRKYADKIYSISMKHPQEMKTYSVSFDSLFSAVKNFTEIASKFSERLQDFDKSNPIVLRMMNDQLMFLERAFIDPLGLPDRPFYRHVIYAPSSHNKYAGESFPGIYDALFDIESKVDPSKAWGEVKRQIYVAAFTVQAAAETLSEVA
Outline: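 hPSMA-Fc was captured (~1000 RU) on an Fc-binding-peptide CM5 chip, and compounds were run in single cycle kinetic mode at 25° C in HBST with 0.1% DMSO. Double-blank-corrected sensorgrams were fitted to a 1:1 Langmuir model to give KD, reported as pKD.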

[3] = pIC50 category of FACS binding, C4-2 cells
[4] = pKD category for PSMA SPR activity assay, hPSMA-Fc, 25° C.
[5] = FACS binding, PSMA-expressing C4-2 cells, pIC50 category
[6] = PSMA SPR assay, hPSMA-Fc, 25° C., pKD category
[7] = FACS binding, C4-2 cells, category

C[C@@H](O)[C@H](NC(=O)[C@@H](NC(=O)[C@@H]1CSSC[C@H](NC(=O)[C@H](Cc2ccc(Cl)cc2)NC(=O)[C@](C)(CO)NC(=O)[C@@H](NC(=O)CC2CCN(C(=O)CN3CCN(CC(=O)O)CCN(CC(=O)O)CCN(CC(=O)O)CC3)CC2)[C@@H](C)O)C(=O)N[C@@H](CCCCN)C(=O)N[C@@H](CCCNC(=N)N)C(=O)N[C@@](C)(CO)C(=O)N[C@@H](CC(N)=O)C(=O)N1)C(C)(C)C)C(N)=O [PSM-0407, DOTA-Cmp-Thr-Ams-Pcf-[Cys-Lys-Arg-Ams-Asn-Cys]-Tle-Thr-NH2] ({DOTA}-[X1]T[αMeS][Phe(4-Cl)]CKR[αMeS]NC[Tle]T-NH2; disulfide 5-10)
IC50 [1, 3]: < 200 nM
Kd [2, 4]: < 12.6 nM

CCCCNC(=O)[C@@H](NC(=O)[C@@H]1CSSC[C@H](NC(=O)[C@H](Cc2ccccc2)NC(=O)C(C)(C)NC(=O)[C@@H](NC(C)=O)[C@@H](C)O)C(=O)N[C@@H](CCCCN)C(=O)N[C@@H](CCCNC(=N)N)C(=O)NC(C)(C)C(=O)N[C@@H](CC(N)=O)C(=O)N1)C(C)(C)C [PSM-0510, Ac-Thr-Aib-Phe-[Cys-Lys-Arg-Aib-Asn-Cys]-Tle-NHBu] (Ac-T[Aib]FCKR[Aib]NC[Tle]-NHBu; disulfide 4-9)
IC50 [1, 3]: < 200 nM
Kd [2, 4]: < 12.6 nM

C[C@@H](O)[C@H](NC(=O)[C@@H](NC(=O)[C@@H]1CSSC[C@H](NC(=O)[C@H](Cc2ccc(Cl)cc2)NC(=O)[C@](C)(CO)NC(=O)[C@@H](NC(=O)CC2CCN(C(=O)CN3CCN(CC(=O)O)CCN(CC(=O)O)CCN(CC(=O)O)CC3)CC2)[C@@H](C)O)C(=O)N[C@@H](CCCCN)C(=O)N[C@@H](CCCNC(=N)N)C(=O)NC(C)(C)C(=O)N[C@@H](CC(N)=O)C(=O)N1)C(C)(C)C)C(N)=O [PSM-0369, DOTA-Cmp-Thr-Ams-Pcf-[Cys-Lys-Arg-Aib-Asn-Cys]-Tle-Thr-NH2] ({DOTA}-[X1]T[αMeS][Phe(4-Cl)]CKR[Aib]NC[Tle]T-NH2; disulfide 5-10)
IC50 [1, 3]: < 200 nM
Kd [2, 4]: < 12.6 nM

CC(=O)N[C@H](C(=O)NC(C)(C)C(=O)N[C@@H](Cc1ccccc1)C(=O)N[C@H]1CSSC[C@@H](C(=O)N[C@H](C(=O)N[C@H](C(=O)N[C@@H](CC(=O)O)C(N)=O)[C@@H](C)O)C(C)(C)C)NC(=O)[C@H](CC(N)=O)NC(=O)[C@H](CCCCNC(=O)CCC(=O)NCCCOCCOCCOCCCNC(=O)CN2CCN(CC(=O)O)CCN(CC(=O)O)CCN(CC(=O)O)CC2)NC(=O)[C@H](CCCNC(=N)N)NC(=O)[C@H](CCCCN)NC1=O)[C@@H](C)O [PSM-0542, Ac-Thr-Aib-Phe-[Cys-Lys-Arg-Lys(DOTA-Ttds)-Asn-Cys]-Tle-Thr-Asp-NH2] (Ac-T[Aib]FCKRK([Suc-X3])NC[Tle]TD-NH2; disulfide 4-9)
IC50 [1, 3]: < 200 nM
Kd [2, 4]: < 12.6 nM

CC(=O)N[C@H](C(=O)NC(C)(C)C(=O)N[C@@H](Cc1ccccc1)C(=O)N[C@H]1CSSC[C@@H](C(=O)N[C@H](C(=O)N[C@H](C(N)=O)[C@@H](C)O)C(C)(C)C)NC(=O)[C@H](CC(N)=O)NC(=O)CN(C)C(=O)[C@H](CCCNC(=N)N)NC(=O)[C@H](CCCCN)NC1=O)[C@@H](C)O [PSM-0232, Ac-Thr-Aib-Phe-[Cys-Lys-Arg-Nmg-Asn-Cys]-Tle-Thr-NH2] (Ac-T[Aib]FCKR[Sar]NC[Tle]T-NH2; disulfide 4-9)
IC50 ([1]; FACS binding, C4-2 cells, competition with 50 nM PSM-0183, category): < 200 nM
Kd ([2]; SPR, hPSMA-Fc, single cycle kinetic, 25° C., category): < 12.6 nM

CC(=O)N[C@H](C(=O)NC(C)(C)C(=O)N[C@@H](Cc1ccccc1)C(=O)N[C@H]1CSSC[C@@H](C(=O)NC(C)(C)C(=O)N[C@H](C(N)=O)[C@@H](C)O)NC(=O)[C@H](CC(N)=O)NC(=O)C(C)(C)NC(=O)[C@H](CCCNC(=N)N)NC(=O)[C@H](CCCCN)NC1=O)[C@@H](C)O [PSM-0394, Ac-Thr-Aib-Phe-[Cys-Lys-Arg-Aib-Asn-Cys]-Aib-Thr-NH2] (Ac-T[Aib]FCKR[Aib]NC[Aib]T-NH2; disulfide 4-9)
IC50 [1, 3]: 200 to 1260 nM
Kd [2, 4]: 12.6 to 126 nM

C=C1N[C@@H](CCCCN)C(=O)N[C@@H](CCCNC(=N)N)C(=O)NC(C)(C)C(=O)N[C@@H](CC(N)=O)C(=O)N[C@H](C(=O)N[C@H](C(=O)N[C@H](C(=O)NCCOCCOCC(=O)N[C@H](CCCCNC(=O)CN2CCN(CC(=O)O)CCN(CC(=O)O)CCN(CC(=O)O)CC2)C(N)=O)[C@@H](C)O)C(C)(C)C)CSSC[C@@H]1NC(=O)[C@H](Cc1ccccc1)NC(=O)C(C)(C)NC(=O)[C@@H](NC(C)=O)[C@@H](C)O [PSM-0529, Ac-Thr-Aib-Phe-[Cys-Lys-Arg-Aib-Asn-Cys]-Tle-Thr-O2Oc-lys(DOTA)-NH2]
IC50 [1, 3]: < 200 nM
Kd [2, 4]: < 12.6 nM

C[C@@H](O)[C@H](NC(=O)[C@@H](NC(=O)[C@@H]1CSSC[C@H](NC(=O)[C@H](Cc2ccc(Cl)cc2)NC(=O)C(C)(C)NC(=O)[C@@H](NC(=O)CC2CCN(C(=O)CN3CCN(CC(=O)O)CCN(CC(=O)O)CCN(CC(=O)O)CC3)CC2)[C@@H](C)O)C(=O)N(C)[C@@H](CCCCN)C(=O)N[C@@H](CCCNC(=N)N)C(=O)NC(C)(C)C(=O)N[C@@H](CC(N)=O)C(=O)N1)C(C)(C)C)C(N)=O [PSM-0548, DOTA-Cmp-Thr-Aib-Pcf-[Cys-Nmk-Arg-Aib-Asn-Cys]-Tle-Thr-NH2] ({DOTA}-[X1]T[Aib][Phe(4-Cl)]C[NMeK]R[Aib]NC[Tle]T-NH2; disulfide 5-10)
IC50 [1, 3]: 200 to 1260 nM
Kd [2, 4]: 12.6 to 126 nM

C[C@@H](O)[C@H](NC(=O)[C@@H](NC(=O)[C@@H]1CSSC[C@H](NC(=O)[C@H](Cc2ccccc2)NC(=O)C(C)(C)NC(=O)CCO)C(=O)N[C@@H](CCCCN)C(=O)N[C@@H](CCCNC(=N)N)C(=O)NC(C)(C)C(=O)N[C@@H](CC(N)=O)C(=O)N1)C(C)(C)C)C(N)=O [PSM-0530, HPA-Aib-Phe-[Cys-Lys-Arg-Aib-Asn-Cys]-Tle-Thr-NH2] ({Propanoyl(3-OH)}-[Aib]FCKR[Aib]NC[Tle]T-NH2; disulfide 3-8)
IC50 [1, 3]: < 200 nM
Kd [2, 4]: < 12.6 nM

InDOTA-Cmp-Thr-Aib-Pcf-[Cys-Lys(Me)-Arg(Me)-Aib-Asn-Cys]-Tle-NH2 [PSM-0519]
pIC50 [C4-2] CAT [1, 3]: A (pIC50 values >6.7)
pKD CAT [2, 4]: A (pKD values >7.9)

CC(C)CC(=O)NC(C)(C)C(=O)N[C@@H](Cc1ccccc1)C(=O)N[C@H]1CSSC[C@@H](C(=O)N[C@H](C(=O)N[C@H](C(=O)N[C@H](CCCCNC(=O)CN2CCN(CC(=O)O)CCN(CC(=O)O)CCN(CC(=O)O)CC2)C(N)=O)[C@@H](C)O)C(C)(C)C)NC(=O)[C@H](CC(N)=O)NC(=O)C(C)(C)NC(=O)[C@H](CCCNC(=N)N)NC(=O)[C@H](CCCCN)NC1=O [PSM-0292, Iva-Aib-Phe-[Cys-Lys-Arg-Aib-Asn-Cys]-Tle-Thr-lys(DOTA)-NH2] (Isovaleryl-[Aib]FCKR[Aib]NC[Tle]T[dK](DOTA)-NH2; disulfide 3-8)
IC50 [1, 5]: < 200 nM
Kd [2, 6]: 12.6 to 126 nM

C[C@@H](O)[C@H](NC(=O)CC1CCN(C(=O)CN2CCN(CC(=O)O)CCN(CC(=O)O)CCN(CC(=O)O)CC2)CC1)C(=O)NC(C)(C)C(=O)N[C@@H](Cc1ccc(Cl)cc1)C(=O)N[C@H]1CSSC[C@@H](C(=O)N[C@H](C(=O)NCCN(C)C)C(C)(C)C)NC(=O)[C@H](CC(N)=O)NC(=O)C(C)(C)NC(=O)[C@H](CCCNC(=N)N)NC(=O)[C@H](CCCCN)NC1=O [PSM-0306, DOTA-Cmp-Thr-Aib-Pcf-[Cys-Lys-Arg-Aib-Asn-Cys]-Tle-en (Me) 2] ({DOTA}-[X1]T[Aib][Phe(4-Cl)]CKR[Aib]NC[Tle]-NHCH2CH2NMe2; disulfide 5-10)
IC50 [1, 5]: < 200 nM
Kd [2, 6]: 12.6 to 126 nM

CCCC[C@H](NC(=O)[C@@H]1CSSC[C@H](NC(=O)[C@H](C)NC(=O)[C@H](C)NC(=O)[C@@H](NC(C)=O)[C@@H](C)O)C(=O)N[C@@H](CCCCN)C(=O)N[C@@H](CCCNC(=N)N)C(=O)N[C@@H](C)C(=O)N[C@@H](CC(N)=O)C(=O)N1)C(=O)N[C@H](C(=O)N[C@@H](CC(=O)O)C(N)=O)[C@@H](C)O [PSM-0586, Ac-Thr-Ala-Ala-[Cys-Lys-Arg-Ala-Asn-Cys]-Nle-Thr-Asp-NH2] (Ac-TAACKRANC[Nle]TD-NH2; disulfide 4-9)
IC50 [1, 7]: > 3160 nM
Kd ([2]; PSMA SPR assay, category): > 501 nM

CC(=O)N[C@H](C(=O)NC(C)(C)C(=O)N[C@@H](Cc1ccccc1)C(=O)N[C@H]1CSSC[C@@H](C(=O)N[C@H](C(=O)N[C@H](C(=O)N[C@@H](CC(=O)O)C(N)=O)[C@@H](C)O)C(C)(C)C)NC(=O)[C@H](CC(N)=O)NC(=O)[C@H](C)NC(=O)[C@H](CCCNC(=N)N)NC(=O)[C@H](CCCCN)NC1=O)[C@@H](C)O [PSM-0565, Ac-Thr-Aib-Phe-[Cys-Lys-Arg-Ala-Asn-Cys]-Tle-Thr-Asp-NH2] (Ac-T[Aib]FCKRANC[Tle]TD-NH2; disulfide 4-9)
IC50 [1, 7]: < 200 nM
Kd ([2]; PSMA SPR assay, category): < 12.6 nM

CC(=O)N[C@H](C(=O)NC(C)(C)C(=O)N[C@@H](Cc1ccccc1)C(=O)N[C@H]1CSSC[C@@H](C(=O)N[C@H](C(=O)N[C@@H](Cc2c[nH]c3ccccc23)C(N)=O)C(C)(C)C)NC(=O)[C@H](CC(N)=O)NC(=O)C(C)(C)NC(=O)[C@H](CCCNC(=N)N)NC(=O)[C@H](CCCCN)NC1=O)[C@@H](C)O [PSM-0376, Ac-Thr-Aib-Phe-[Cys-Lys-Arg-Aib-Asn-Cys]-Tle-Trp-NH2] (Ac-T[Aib]FCKR[Aib]NC[Tle]W-NH2; disulfide 4-9)
IC50 [1, 3]: < 200 nM
Kd [2, 4]: < 12.6 nM
